Series [1] has as its system Mycosphaerella graminicola; Anamorph: Septoria tritici. In words: Leaf blotch of wheat (SEPTTR) disease control on wheat seedlings. Type of series: in vivo. As to conditions: Zymoseptoria tritici; for pest or weed control at 121.5 g/ha: 121.5 g/H (low volume track spray). How it is done:
Evaluation of Fungicidal Activity: Leaf Blotch of Wheat (Mycosphaerella graminicola; Anamorph: Septoria tritici; Bayer Code […]) Technical grades of materials were dissolved in acetone, which were then mixed with nine volumes of water containing 110 ppm Triton X-100. The fungicide solutions were applied onto wheat seedlings using an automated booth sprayer to run-off. All sprayed plants were allowed to air dry prior to further handling. All fungicides were evaluated using the aforementioned method for their activity vs. all target diseases. Wheat leaf blotch and brown rust activity were also evaluated using track spray applications, in which case the fungicides were formulated as EC formulations, containing 0.1% Trycol 5941 in the spray solutions. Wheat plants (variety Yuma) were grown from seed in a greenhouse in 50% mineral soil/50% soil-less Metro mix until the first leaf was fully emerged, with 7-10 seedlings per pot. These plants were inoculated with an aqueous spore suspension of Septoria tritici either prior to or after fungicide treatments. After inoculation the plants were kept in 100% relative humidity (one day in a dark dew chamber followed by two to three days in a lighted dew chamber at 20° C.) to permit spores to germinate and infect the leaf. The plants were then transferred to a greenhouse set at 20° C. for disease to develop. When disease symptoms were fully expressed on the l^st leaves of untreated plants, infection levels were assessed on a scale of 0 to 100 percent disease severity. Percent disease control was calculated using the ratio of disease severity on treated plants relative to untreated plants.

A further series relates to Puccinia triticina. In words: Wheat brown rust (PUCCRT) disease control on wheat seedlings. Type of series: in vivo. As to conditions: for pest or weed control at 121.5 g/ha: 121.5 g/H (low volume track spray); for pest or weed control at 100 ppm: 100 ppm (high volume). As for the experimental part: Technical grades of materials were dissolved in acetone, which were then mixed with nine volumes of water containing 110 ppm Triton X-100. The fungicide solutions were applied onto wheat seedlings using an automated booth sprayer to run-off. All sprayed plants were allowed to air dry prior to further handling. All fungicides were evaluated using the aforementioned method for their activity vs. all target diseases. Wheat leaf blotch and brown rust activity were also evaluated using track spray applications, in which case the fungicides were formulated as EC formulations, containing 0.1% Trycol 5941 in the spray solutions. Wheat plants (variety Yuma) were grown from seed in a greenhouse in 50% mineral soil/50% soil-less Metro mix until the first leaf was fully emerged, with 7-10 seedlings per pot. These plants were inoculated with an aqueous spore suspension of Septoria tritici either prior to or after fungicide treatments. After inoculation the plants were kept in 100% relative humidity (one day in a dark dew chamber followed by two to three days in a lighted dew chamber at 20° C.) to permit spores to germinate and infect the leaf. The plants were then transferred to a greenhouse set at 20° C. for disease to develop. When disease symptoms were fully expressed on the l^st leaves of untreated plants, infection levels were assessed on a scale of 0 to 100 percent disease severity. Percent disease control was calculated using the ratio of disease severity on treated plants relative to untreated plants. Evaluation of Fungicidal Activity: Wheat Brown Rust (Puccinia triticina; Synonym: Puccinia recondite f sp. tritici; Bayer code PUCCRT) Wheat plants (variety Yuma) were grown from seed in a greenhouse in 50% mineral soil/50% soil-less Metro mix until the first leaf was fully emerged, with 7-10 seedlings per pot. These plants were inoculated with an aqueous spore suspension of Puccinia triticina either prior to or after fungicide treatments. After inoculation the plants were kept in a dark dew room at 22° C. with 100% relative humidity overnight to permit spores to germinate and infect the leaf. The plants were then transferred to a greenhouse set at 24° C. for disease to develop. Fungicide formulation, application and disease assessment followed the procedures as described in the Example A.

[2] abbreviates: 24 h, 1 Day Protectant, wheat, read-out: SEPTTR 1DP disease control rating.
[3] abbreviates: 72 h, 3 Day Curative, wheat, read-out: SEPTTR 3DC disease control rating.
The mark [4] stands for this setting: 24 h, 1 Day Protectant, read-out: PUCCRT 1DP disease control rating.
Where [5] appears, read: 72 h, 3 Day Curative, read-out: PUCCRT 3DC disease control rating.
[6] abbreviates: 24 h, 1 Day Protectant, 100 ppm (high volume), wheat, read-out: SEPTTR 1DP disease control rating.
Setting [7] is: 72 h, 3 Day Curative, 100 ppm (high volume), wheat, read-out: SEPTTR 3DC disease control rating.

SMILES strings stand for the structures. Read-outs that look alike come from different tables or passages of the source.

By melting point is commonly meant the temperature of the solid-liquid transition. As to `COc1ccnc(C(=O)N[C@H]2CCC[C@H](OCc3ccccc3)[C@@H](CCC(C)C)[C@H](C)OC2=O)c1OC(C)=O` [Compound 17], the melting point lay in the range of 58 to 62 °C. In addition, the pest or weed control at 121.5 g/ha in series [1] (setting [2]) was greater than 70%. Moreover, the pest or weed control at 121.5 g/ha in series [1] (setting [3]) is greater than 70%. Further, in the series on Puccinia triticina (setting [4]), the pest or weed control at 121.5 g/ha is greater than 70%. Further, the pest or weed control at 121.5 g/ha in the series on Puccinia triticina (setting [5]) is greater than 70%.
Consider `CCCO[C@H]1CCC[C@H](NC(=O)c2nccc(OC)c2O)C(=O)O[C@@H](C)[C@@H]1Cc1ccccc1` [Compound 49], for which the melting point is 59 to 64 °C. Moreover, the pest or weed control at 100 ppm in series [1] (setting [6]) was greater than 70%. Moreover, the pest or weed control at 100 ppm in series [1] (setting [7]) is greater than 70%. The pest or weed control at 100 ppm in the series on Puccinia triticina (setting [4]) was greater than 70%. Moreover, the pest or weed control at 100 ppm in the series with Puccinia triticina (setting [5]) was greater than 70%.
`COc1ccnc(C(=O)N[C@H]2CCC[C@H](Oc3ccc(C)cc3)[C@@H](Cc3ccccc3)[C@H](C)OC2=O)c1O` [Compound 60] came in with a melting point of 68 to 71 °C. The pest or weed control at 100 ppm in series [1] (setting [6]) was greater than 70%. Besides, the pest or weed control at 100 ppm in series [1] (setting [7]) was greater than 70%. Also, in the series with Puccinia triticina (setting [4]), the pest or weed control at 100 ppm was greater than 70%. Moreover, in the series on Puccinia triticina (setting [5]), the pest or weed control at 100 ppm was greater than 70%.
Molecule `CCCC[C@H]1[C@H](C)OC(=O)[C@@H](N)CCC[C@@H]1OCCCC(F)(F)F.Cl` yielded a melting point of 196 to 198 °C.
Turning to `COc1ccnc(C(=O)N[C@H]2CCC[C@H](Oc3ccccc3)[C@@H](CCC(C)C)[C@H](C)OC2=O)c1O` [Compound 8], the melting point fell in the range of 55 to 60 °C. Moreover, the pest or weed control at 100 ppm in series [1] (setting [6]) is greater than 70%. In series [1] (setting [7]), the pest or weed control at 100 ppm is greater than 70%. Further, the pest or weed control at 100 ppm in the series with Puccinia triticina (setting [4]) is greater than 70%. The pest or weed control at 100 ppm in the series with Puccinia triticina (setting [5]) is greater than 70%.
Consider `CCCC[C@H]1[C@H](C)OC(=O)[C@@H](NC(=O)c2nccc(OC)c2OCOC(C)=O)CCC[C@@H]1OCCCC(F)(F)F` [Compound 52], for which the pest or weed control at 121.5 g/ha (in series [1] (setting [2]); in series [1] (setting [3]); in the series on Puccinia triticina (setting [4]); with Puccinia triticina (setting [5])) was greater than 70% each time.
In the case of `COc1ccnc(C(=O)N[C@H]2CCC[C@H](OCC3CC3)[C@@H](Cc3ccccc3)[C@H](C)OC2=O)c1O` [Compound 67], the pest or weed control at 100 ppm (in series [1] (setting [6]); in series [1] (setting [7]); in the series with Puccinia triticina (setting [4]); in the series on Puccinia triticina (setting [5])) was greater than 70% throughout.
Regarding `CC(C)CC[C@H]1[C@H](C)OC(=O)[C@@H](NC(=O)OC(C)(C)C)CCC[C@@H]1OCc1ccccc1` [Compound 51], the melting point lay in the range of 97 to 100 °C.
`CCCC[C@H]1[C@H](C)OC(=O)[C@@H](NC(=O)c2nccc(OC)c2O)CCC[C@@H]1OC(=O)C(C)C` [Compound 64]: the pest or weed control at 100 ppm in series [1] (setting [6]) is greater than 70%; in series [1] (setting [7]) it was greater than 70%; in the series with Puccinia triticina (setting [4]), greater than 70%; in the series on Puccinia triticina (setting [5]), less than 70%.
Molecule `CCCC[C@H]1[C@H](C)OC(=O)[C@@H](N)CCC[C@@H]1OCC1CC1.Cl` came in with a melting point of 223 to 224 °C.
The molecule `CCCO[C@H]1CCC[C@H](NC(=O)c2nccc(OC)c2O)C(=O)O[C@@H](C)[C@@H]1CCC(C)C` [Compound 31, 3-hydroxy-N-((3S,7S,8S,9S)-8-isopentyl-9-methyl-2-oxo-7-propoxyoxonan-3-yl)-4-methoxypicolinamide] yielded a melting point of 45 to 49 °C. The pest or weed control at 100 ppm in series [1] (24 h, read-out: SEPTTR 1DP disease control rating) is less than 70%. Moreover, the pest or weed control at 100 ppm in series [1] (72 h, read-out: SEPTTR 3DC disease control rating) is less than 70%. The pest or weed control at 100 ppm with Puccinia triticina (setting [4]) is greater than 70%. For the same molecule, the pest or weed control at 100 ppm in the series with Puccinia triticina (setting [5]) was less than 70%.
As to `COc1ccnc(C(=O)N[C@H]2CCC[C@H](OCC3CC3)[C@@H](Cc3ccccc3)[C@H](C)OC2=O)c1OCOC(C)=O` [Compound 56], the pest or weed control at 100 ppm (in series [1] (setting [6]); in series [1] (setting [7]); with Puccinia triticina (setting [4]); with Puccinia triticina (setting [5])) was greater than 70% each time.
`CCCO[C@H]1CCC[C@H](NC(=O)c2nccc(OC)c2OCOC(C)=O)C(=O)O[C@@H](C)[C@@H]1Cc1ccc(F)cc1` [Compound 7]: the pest or weed control at 121.5 g/ha (in series [1] (setting [2]); in series [1] (setting [3]); with Puccinia triticina (setting [4]); in the series with Puccinia triticina (setting [5])) was greater than 70% each time.
Consider `COc1ccnc(C(=O)N[C@H]2CCC[C@H](OCc3ccccc3)[C@@H](CCC(C)C)[C@H](C)OC2=O)c1OCOC(C)=O` [Compound 1], for which the pest or weed control at 121.5 g/ha (in series [1] (setting [2]); in series [1] (setting [3]); in the series on Puccinia triticina (setting [4]); in the series with Puccinia triticina (setting [5])) was greater than 70% in each case.
Regarding `COc1ccnc(C(=O)N[C@H]2CCC[C@H](OCC(C)C)[C@@H](Cc3ccccc3)[C@H](C)OC2=O)c1OCOC(C)=O` [Compound 65], the pest or weed control at 121.5 g/ha (in series [1] (setting [2]); in series [1] (setting [3]); in the series on Puccinia triticina (setting [4]); in the series on Puccinia triticina (setting [5])) was greater than 70% in each case.

The values above are taken from US9247741B2, “Use of macrocyclic picolinamides as fungicides” (DOW AGROSCIENCES LLC, priority 2013, dated 2016).
